Results from paper PMC8157262 (Pharmaceutics, 2021).
Like-named read-outs stand apart in the source and are kept apart here.

Tests used:
[1] = Pharmacokinetics after intravenous administration of tofacitinib and/or voriconazole to rats; conditions: Sprague-Dawley, rat, 10 mg/kg
Experimental: In all cases, the treatment was administered intravenously for 1 min via the jugular vein (total injection volume of 4 mL/kg). Blood samples (approximately 0.12 mL for single drug administration and 0.22 mL for co-administration of both drugs) were taken from the carotid artery at 0 (before the start of injection), 1 (right after injection), 5, 15, 30, 60, 120, 180, 240, 360, 480, 600 and/or 720 min after the start of injection. […] Urine samples, collected for 24 h following injection, and gastrointestinal tract (including its contents and feces) samples, collected 24 h after injection, were prepared in accordance with previously reported methods.

[2] = Protein binding of tofacitinib to fresh rat plasma (equilibrium dialysis); assay type: in vitro ADME; conditions: n = 5, read-out: Protein binding (bound fraction) (converted)
Experimental: Briefly, plasma was dialyzed against isotonic phosphate buffer (pH 7.4) in a 1 mL dialysis cell (Spectrum Medical Industries, Los Angeles, CA, USA).

[3] = Sprague-Dawley, rat, in vivo
[4] = tested on: rat hepatic microsomes; conditions: for Vmax for the elimination of tofacitinib: liver microsomes, n = 3
[5] = tested on: rat intestinal microsomes
[6] = oral, healthy male adults; cited from earlier work
[7] = tested on: Candida albicans-infected mice; conditions: long-term administration to Candida albicans-infected mice; cited from earlier work
[8] = in vivo; conditions: Sprague-Dawley, rat; for bioavailability: F
[9] = in vitro; conditions: rat, liver microsomes
[10] = in vitro; conditions: rat, intestinal microsomes
[11] = cited from earlier work
[12] = tested on: human carbonic anhydrase 1; conditions: interaction with acetazolamide; cited from earlier work
[13] = tested on: α-glycosidase; conditions: interaction with acarbose; cited from earlier work
[14] = rat hepatic microsomes, 20 μM voriconazole
[15] = rat intestinal microsomes, 20 μM voriconazole
[16] = pH 7.4, with voriconazole 20 μM

SMILES: C[C@@H]1CCN(C(=O)CC#N)C[C@@H]1N(C)c1ncnc2[nH]ccc12 [tofacitinib, Tofacitinib]
- AUC ([1]; in vivo): 12300 ng·h/mL
- CL renal ([1]; in vivo): 3.61 ± 0.829 mL/min/kg
- AUC ([1]; iv, AUC): 4630 ng·h/mL
- CL renal ([1]; iv, CLR): 1.44 ± 0.678 mL/min/kg
- Vd ([1]; iv, Vss): 1.21 ± 0.489 L/kg
- fraction unbound at 8 h, 5 μg/mL ([2]; pH 7.4, tofacitinib 5 μg/mL in the absence of voriconazole): 0.621
- fraction unbound at 8 h, 5 μg/mL ([2]; pH 7.4, tofacitinib 5 μg/mL in the presence of voriconazole 5 μg/mL): 0.639
- F [3]: 72.4%
- 'true' fraction of the oral dose unabsorbed (Funabs) ([3]; po): approximately 0.162%
- Fraction of the oral dose absorbed ([3]; po): more than 99%
- CLR ([3]; po, 20 mg/kg): 0.310 ± 0.117 mL/min/kg
- Vmax for the elimination of tofacitinib ([4]; with 20 μM VCZ): 1184 ± 470 pmol/min/mg protein
- Vmax for the elimination of tofacitinib ([4]; without VCZ): 2895 ± 319 pmol/min/mg protein
- CLint of tofacitinib slower in the presence of voriconazole [4, 14]: 65.5%
- Vmax of tofacitinib elimination slower in the presence of voriconazole [4, 14]: 59.1%
- Vmax for the elimination of tofacitinib ([5]; intestinal microsomes, with 20 μM VCZ, n = 3): 212 ± 27.0 pmol/min/mg protein
- Vmax for the elimination of tofacitinib ([5]; intestinal microsomes, without VCZ, n = 3): 380 ± 86.1 pmol/min/mg protein
- CLint of tofacitinib slower in the presence of voriconazole [5, 15]: 21.1%
- Vmax of tofacitinib elimination slower in the presence of voriconazole [5, 15]: 44.2%
- AUC of tofacitinib higher when co-administered with fluconazole [6]: 79%
- AUC of tofacitinib higher when combined with ketoconazole [6]: 103%
- Survival rate of infected mice [7]: significantly reduce their survival rate
- bioavailability [8]: 71.2%
- CL renal ([8]; po, 20 mg/kg, CLR): 5.36 ± 1.35 mL/min/kg
- Tmax ([8]; po, 20 mg/kg): 1.46 h
- Km ([9]; pH 7.4): 124 ± 13.7 µM
- microsomal CLint ([9]; pH 7.4): 23.3 ± 0.689 µL/min/mg
- Km [9, 16]: 147 ± 43.4 µM
- microsomal CLint [9, 16]: 8.05 ± 2.01 µL/min/mg
- Km ([10]; pH 7.4): 43.1 ± 11.7 µM
- microsomal CLint ([10]; pH 7.4): 8.94 ± 1 µL/min/mg
- Km [10, 16]: 30.1 ± 3.29 µM
- microsomal CLint [10, 16]: 7.05 ± 0.12 µL/min/mg
- Volume of distribution ([11]; tofacitinib oral, healthy subjects): 1.24 L/kg
- Plasma protein binding ([11]; tofacitinib, healthy subjects): approximately 40%
- Absolute oral bioavailability (F) ([11]; tofacitinib, humans): approximately 74%
- Fraction processed by CYP2C19 ([11]; tofacitinib, humans): 20%
- Fraction processed by CYP3A4 ([11]; tofacitinib, humans): about 50%

SMILES: C[C@@H](c1ncncc1F)[C@](O)(Cn1cncn1)c1ccc(F)cc1F [voriconazole, Voriconazole]
- MRT ([1]; iv): 6.67 ± 2.48 h
- AUC ([1]; iv, AUC): 31000 ng·h/mL
- MRT ([1]; iv, MRT): 7.03 h
- half-life ([1]; iv, Terminal half-life): 5.23 ± 1.61 h
- F [3]: 122%
- Manner of inhibition of tofacitinib metabolism by voriconazole ([4]; Lineweaver–Burk and Dixon plots, rat hepatic microsomes): non-competitive manner
- Manner of inhibition of tofacitinib metabolism by voriconazole ([5]; rat intestinal microsomes): non-competitive manner
- Ki ([5]; read-out: Apparent Ki of voriconazole for the inhibition of tofacitinib metabolism, intestinal microsomes, non-competitive model, n = 3): 26.2 ± 8.05 µM
- Type of inhibition of human carbonic anhydrase 1 [12]: non-competitive inhibition
- Type of inhibition of α-glycosidase [13]: non-competitive inhibition
- bioavailability [8]: 106%
- AUC ([8]; po, 20 mg/kg, AUC): 65600 ng·h/mL
- Cmax ([8]; po, 20 mg/kg, Cmax): 7820 ± 1130 ng/mL
- Tmax ([8]; po, 20 mg/kg): 4.38 h
- F ([11]; human, in vivo): over 90%
- Protein binding ([11]; human, in vivo): approximately 58%
- half-life ([11]; human, in vivo): approximately 6 h
